Test results: patent US5264430A, “2-spirocyclopropyl cephalosporin sulfone derivatives” (SynPhar Laboratories, Inc., priority 1991, dated 1993)
Like-named read-outs stand apart in the source and are kept apart here.

How the values were obtained:
trypsin = target: T1, trypsin (Bos taurus, UniProt P00760); experiment: Selectivity against various proteases: trypsin (TRY); format: biochemical, bovine
T1 construct: Purified trypsin from bovine pancreas; from tissue; host or cells: bovine pancreas
T1 sequence (P00760 24-246): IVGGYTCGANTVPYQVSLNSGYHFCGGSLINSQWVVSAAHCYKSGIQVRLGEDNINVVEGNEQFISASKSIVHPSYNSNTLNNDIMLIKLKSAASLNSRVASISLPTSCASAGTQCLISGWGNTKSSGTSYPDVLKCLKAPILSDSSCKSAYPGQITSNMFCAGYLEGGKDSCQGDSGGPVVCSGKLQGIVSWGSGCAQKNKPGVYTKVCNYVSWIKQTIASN

thrombin = target: T2, thrombin (Homo sapiens, UniProt P00734); experiment: Selectivity against various proteases: thrombin (THR); format: biochemical; conditions: human plasma, pH 8.6, 22° C., 10 minute preincubation
T2 construct: Purified thrombin from human plasma; from tissue; host or cells: human plasma
Description: TRY = trypsin, THR = thrombin, PLM = plasmin, CTC = cathepsin C, APM =
Enzyme: Purified thrombin from human plasma
Substrate: Tosyl-glycyl-L-prolyl-L-arginine-p-NA acetate
50 mM Tricine-NaOH buffer (PH 8.6)
(§1) Except for Cathepsin D, the enzyme activities were determined by monitoring the increase in absorbance at 410 nm caused by the hydrolysis of chromogenic substrates. The activity of Cathepsin D was determined by monitoring the absorbance of 5% trichloroacetic acid-soluble material at 280 nm.
(§2) Inhibition of enzymes by the compounds described were determined after a 10 minute preincubation with enzymes in reaction mixtures minus substrate. Reactions were initiated by the addition of substrates. The concentration used for assays were porcine pancreatic elastase at 240 nM and human Cathepsin G at 50 nM. Cathepsin D was used at the concentration that produced approximately 0.15 O.D. increase per 20 min at 280 nm under the standard conditions. All other proteases were assayed at the concentrations that produced approximately 0.1 O.D. change per minute at 410 nm under the standard conditions.

cathepsin C = target: T3, cathepsin C (Bos taurus, UniProt Q3ZCJ8); experiment: Selectivity against various proteases: cathepsin C (CTC); format: biochemical, bovine
T3 construct: Purified cathepsin C from bovine spleen; from tissue; host or cells: bovine spleen

aminopeptidase M = target: T4, aminopeptidase M (Sus scrofa, UniProt P15145); experiment: Selectivity against various proteases: aminopeptidase M (APM); format: biochemical, porcine
T4 construct: Purified aminopeptidase M from porcine kidney; from tissue; host or cells: porcine kidney
T4 sequence (P15145 1-963): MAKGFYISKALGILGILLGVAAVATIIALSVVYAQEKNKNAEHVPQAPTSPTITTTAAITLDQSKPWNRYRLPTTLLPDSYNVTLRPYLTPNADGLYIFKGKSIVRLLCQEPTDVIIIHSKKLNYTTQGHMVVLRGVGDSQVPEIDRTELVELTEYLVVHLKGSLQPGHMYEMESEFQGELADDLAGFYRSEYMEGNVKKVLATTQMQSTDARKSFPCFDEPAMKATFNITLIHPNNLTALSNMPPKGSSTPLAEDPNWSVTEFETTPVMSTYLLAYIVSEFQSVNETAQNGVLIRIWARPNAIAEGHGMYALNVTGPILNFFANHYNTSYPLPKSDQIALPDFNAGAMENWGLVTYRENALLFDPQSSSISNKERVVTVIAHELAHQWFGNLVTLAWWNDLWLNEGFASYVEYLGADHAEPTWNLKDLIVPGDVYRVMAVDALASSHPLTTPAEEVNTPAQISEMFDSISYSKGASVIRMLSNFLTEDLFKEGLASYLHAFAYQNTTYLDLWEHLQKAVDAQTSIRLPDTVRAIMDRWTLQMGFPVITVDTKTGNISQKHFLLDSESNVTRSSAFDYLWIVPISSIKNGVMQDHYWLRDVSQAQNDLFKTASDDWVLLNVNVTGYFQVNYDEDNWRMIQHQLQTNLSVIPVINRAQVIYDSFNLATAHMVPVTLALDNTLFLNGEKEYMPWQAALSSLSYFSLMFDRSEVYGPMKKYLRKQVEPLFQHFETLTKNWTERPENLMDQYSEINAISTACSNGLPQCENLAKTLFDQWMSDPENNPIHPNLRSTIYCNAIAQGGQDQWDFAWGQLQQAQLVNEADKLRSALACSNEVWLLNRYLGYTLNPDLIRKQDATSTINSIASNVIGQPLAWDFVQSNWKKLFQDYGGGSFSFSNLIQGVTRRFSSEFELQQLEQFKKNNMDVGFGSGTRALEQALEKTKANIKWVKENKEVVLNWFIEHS

cathepsin D = target: T5, cathepsin D (Bos taurus, UniProt P80209); experiment: Selectivity against various proteases: cathepsin D (CTD); format: biochemical, bovine
T5 construct: Purified cathepsin D from bovine spleen; from tissue; host or cells: bovine spleen

[1] = target: T6, porcine pancreatic elastase (Sus scrofa, UniProt P00772); experiment: Selectivity against various proteases: porcine pancreatic elastase (PPE); format: biochemical
T6 construct: Purified elastase from porcine pancreas; from tissue; host or cells: porcine pancreas
Description: Porcine Pancreatic Elastase (PPE)
Enzyme: Purified elastase from porcine pancreas
Substrate: MeO-succinyl-L-alanyl-L-alanyl-L-prolyl-L-valine-pNA
50 mM Tris[Tris(hydroxymethyl) aminomethane]. HCl buffer (pH 8.9)
as §1
as §2, with “The concentration used for assays were porcine pancreatic elastase at 240 nM and human Cathepsin G at 50 nM.” left out

cathepsin G = target: T7, cathepsin G (Homo sapiens, UniProt P08311); experiment: Selectivity against various proteases: cathepsin G (CTG); format: biochemical; conditions: cathepsin G 50 nM, human white blood cells, pH 7.5, 30° C., 10 minute preincubation
T7 construct: Purified Cathepsin G from human white blood cells; from tissue; host or cells: human white blood cells
T7 sequence (P08311 21-244 limits assumed): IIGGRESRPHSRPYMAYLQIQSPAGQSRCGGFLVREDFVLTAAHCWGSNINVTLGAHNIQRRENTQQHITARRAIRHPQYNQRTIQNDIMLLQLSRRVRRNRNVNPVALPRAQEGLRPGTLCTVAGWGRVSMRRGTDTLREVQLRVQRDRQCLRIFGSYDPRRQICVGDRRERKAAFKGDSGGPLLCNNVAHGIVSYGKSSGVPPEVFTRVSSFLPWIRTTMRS
Description: as §2, with “Reaction mixture: […] 500 mM NaCl […] 2.0 mM Substrate Except for Cathepsin D, the enzyme activities were determined by monitoring the increase in absorbance at 410 nm caused by the hydrolysis of chromogenic substrates. The activity of Cathepsin D was determined by monitoring the absorbance of 5% trichloroacetic acid-soluble material at 280 nm. Inhibition” for “Inhibition”

[2] = trypsin, bovine pancreas, pH 8.8, 22° C., 10 minute preincubation, read-out: TRY IC50 (converted)
[3] = cathepsin C, bovine spleen, pH 5.4, 22° C., 10 minute preincubation, read-out: CTC IC50 (converted)
[4] = aminopeptidase M, porcine kidney, pH 7.5, 22° C., 10 minute preincubation, read-out: APM IC50 (converted)
[5] = cathepsin D, bovine spleen, pH 3.2, 30° C., 10 minute preincubation, read-out: CTD IC50 (converted)
[6] = porcine pancreatic elastase 240 nM, pH 8.9, 30° C., 10 minute preincubation, read-out: PPE IC50 (converted)

T5 sequence (P80209 45-390): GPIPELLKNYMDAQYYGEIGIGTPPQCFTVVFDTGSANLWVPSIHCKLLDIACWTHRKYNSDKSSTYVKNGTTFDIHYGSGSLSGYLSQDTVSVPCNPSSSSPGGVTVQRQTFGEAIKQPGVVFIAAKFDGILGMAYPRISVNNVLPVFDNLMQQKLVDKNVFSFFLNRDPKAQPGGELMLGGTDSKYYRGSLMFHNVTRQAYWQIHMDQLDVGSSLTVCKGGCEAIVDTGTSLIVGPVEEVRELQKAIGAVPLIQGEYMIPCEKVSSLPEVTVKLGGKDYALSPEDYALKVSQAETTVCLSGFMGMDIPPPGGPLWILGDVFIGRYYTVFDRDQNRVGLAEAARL
T6 sequence (P00772 27-266): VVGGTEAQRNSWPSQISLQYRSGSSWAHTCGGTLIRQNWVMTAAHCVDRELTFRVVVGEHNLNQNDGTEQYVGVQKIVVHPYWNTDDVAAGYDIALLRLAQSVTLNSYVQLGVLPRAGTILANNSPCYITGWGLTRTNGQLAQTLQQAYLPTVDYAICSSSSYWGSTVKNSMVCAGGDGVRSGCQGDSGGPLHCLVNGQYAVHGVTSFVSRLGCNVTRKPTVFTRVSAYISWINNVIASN
T3 sequence (Q3ZCJ8 231-394 limits assumed): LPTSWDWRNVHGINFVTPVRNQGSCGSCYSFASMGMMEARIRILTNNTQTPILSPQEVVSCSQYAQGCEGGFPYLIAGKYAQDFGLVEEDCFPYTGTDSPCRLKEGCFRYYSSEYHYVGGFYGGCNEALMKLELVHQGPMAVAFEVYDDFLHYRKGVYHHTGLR
T3 sequence (Q3ZCJ8 395-463 limits assumed): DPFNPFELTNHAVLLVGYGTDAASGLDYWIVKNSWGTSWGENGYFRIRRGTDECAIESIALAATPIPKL
T3 sequence (Q3ZCJ8 25-134 limits assumed): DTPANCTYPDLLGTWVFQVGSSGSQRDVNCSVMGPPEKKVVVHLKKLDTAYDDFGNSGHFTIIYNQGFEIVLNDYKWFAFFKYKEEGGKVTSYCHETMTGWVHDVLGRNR

Row | IC50 (thrombin) [µM] | IC50 (cathepsin C; [3]) [µM] | IC50 (aminopeptidase M; [4]) [µM] | IC50 (cathepsin D; [5]) [µM] | IC50 (cathepsin C) [µM] | IC50 (aminopeptidase M) [µM] | IC50 (cathepsin G) [µM] | IC50 (trypsin) [µM] | IC50 (cathepsin D) [µM] | IC50 [1, 6] [µM] | TRY IC50 (trypsin; trypsin, bovine pancreas, pH 8.8, 22° C., 10 minute preincubation) [µg/mL] | Compound | IC50 (trypsin; [2]) [µM] | IC50 [1] [µM]
1 | 55.3 | – | – | 46.2 | 55.3 | 55.3 | – | – | – | – | – | CC1=C(C(=O)OC(c2ccccc2)c2ccccc2)N2C(=O)[C@H](Br)[C@H]2S(=O)(=O)C12CC2(c1ccc(Cl)cc1)c1ccc(Cl)cc1 (single isomer, unassigned) [Example 12, Benzhydryl 7α-bromo-2-spiro [2',2'-(4',4'-dichloro)diphenyl]cyclopropyl-3-methyl-3-cephem-4-carboxylate-1,1-dioxide] | – | –
2 | 40 | 60 | 60 | 17.2 | – | – | 20 | – | – | – | – | CC1=C(C(=O)OC(c2ccccc2)c2ccccc2)N2C(=O)[C@H](Cl)[C@H]2S(=O)(=O)C12CC2(c1ccccc1)c1ccccc1 (single isomer, unassigned) [Example 1, Benzhydryl 7α-chloro-2-spiro(2',2'-diphenyl) cyclopropyl-3-methyl-3-cephem-4-carboxylate-1,1-dioxide] | 60 | –
3 | 10 | – | – | – | 10 | 10 | – | 10 | 10 | 0.0578 | – | CO[C@H]1C(=O)N2C(C(=O)OC(c3ccccc3)c3ccccc3)=C(C)C3(CC3(c3ccccc3)c3ccccc3)S(=O)(=O)[C@H]12 (stereo partly drawn) [Example 9, Benzhydryl 7α-methoxy-2-spiro (2',2'-diphenyl) cyclopropyl-3-methyl-3-cephem-4-carboxylate-1,1-dioxide] | – | –
4 | 39 | 9.77 | 9.77 | 9.77 | – | – | – | 39 | – | – | – | CC1=C(C(=O)N2CCCC2)N2C(=O)[C@H](Br)[C@H]2S(=O)(=O)C12CC2(c1ccccc1)c1ccccc1 (stereo partly drawn) [Example 6, 7α Bromo-2-spiro(2',2'-diphenyl)cyclopropyl-3-methyl-3-cephem-4-pyrrolidine carboxamide-1,1-dioxide] | – | –
5 | 40 | – | – | – | 40 | 40 | – | – | – | – | – | CCOC(=O)C1CC12C(C)=C(C(=O)OC(c1ccccc1)c1ccccc1)N1C(=O)[C@H](Br)[C@H]1S2(=O)=O (stereo partly drawn) [Example 13 (1), Benzhydryl 7α-bromo-2-spiro(2'-ethoxycarbonyl)cyclo propyl-3-methyl-3-cephem-4-carboxylate-1,1-dioxide] | – | –
6 | 40 | – | – | 50 | 40 | 40 | – | 40 | – | – | – | CC1=C(C(=O)OC(c2ccccc2)c2ccccc2)N2C(=O)[C@H](Br)[C@H]2S(=O)(=O)C12CC2(c1ccc(F)cc1)c1ccc(F)cc1 (single isomer, unassigned) [Example 13, Benzhydryl 7α-bromo-2-spiro[2',2'-(4',4'-difluoro)diphenyl] cyclopropyl-3-methyl-3-cephem-4-carboxylate-1,1-dioxide] | – | –
7 | 9.98 | – | – | – | 9.98 | 9.98 | – | – | 9.98 | – | – | CO[C@H]1C(=O)N2C(C(=O)OCC(Cl)(Cl)Cl)=C(C)C3(CC3(c3ccccc3)c3ccccc3)S(=O)(=O)[C@H]12 (stereo partly drawn) [Example 8, 2,2,2-Trichloroethyl-7α-methoxy-2-spiro(2',2'-diphenyl) cyclo-propyl-3-methyl-3-cephem-4-carboxylate-1,1-dioxide] | – | –
8 | 40 | 9.99 | – | 9.99 | – | 40 | 30.9 | 40 | – | 0.0954 | – | CO[C@H]1C(=O)N2C(C(=O)N3CCCC3)=C(C)C3(CC3(c3ccccc3)c3ccccc3)S(=O)(=O)[C@H]12 (stereo partly drawn) [Example 10, 7-α-Methoxy-2-spiro (2',2'-diphenyl)cyclopropyl-3-methyl-3-cephem-4-pyrrolidine carboxamide-1,1-dioxide] | – | –
9 | 40 | – | – | 50 | 40 | 40 | – | – | – | – | 0.089 | CC1=C(C(=O)OC(c2ccccc2)c2ccccc2)N2C(=O)[C@H](Br)[C@H]2S(=O)(=O)C12CC2(C)c1ccccc1 (stereo partly drawn) [Example 13 (2), Benzhydryl 7α-bromo-2-spiro(2'-phenyl-2'-methyl) cyclopropyl-3-methyl-3-cephem-4-carboxylate-1,1-dioxide] | – | –

Row | Compound | IC50 (thrombin) [µM] | IC50 (cathepsin C; [3]) [µM] | IC50 (aminopeptidase M; [4]) [µM] | IC50 (cathepsin D; [5]) [µM] | IC50 (cathepsin C) [µM] | IC50 (aminopeptidase M) [µM] | IC50 (cathepsin G) [µM] | IC50 (trypsin) [µM] | IC50 (cathepsin D) [µM] | IC50 [1, 6] [µM] | TRY IC50 (trypsin; trypsin, bovine pancreas, pH 8.8, 22° C., 10 minute preincubation) [µg/mL] | IC50 (trypsin; [2]) [µM] | IC50 [1] [µM]
10 | CO[C@H]1C(=O)N2C(C(=O)N3CCCCC3)=C(C)C3(CC3(c3ccccc3)c3ccccc3)S(=O)(=O)[C@H]12 (stereo partly drawn) [Example 11, 7α-Methoxy-2-spiro (2',2'-diphenyl)cyclopropyl-3-methyl-3-cephem-4-piperidine carboxamide-1,1-dioxide] | 39.9 | 10 | 10 | 10 | – | – | – | – | – | – | – | 10 | 0.0316
